{"source": "patent US20130109049A1", "about": "“Method of Establishing a Fungal Nail Infection” (NOVABIOTICS LIMITED, priority 2009, published 2013)", "key": {"Candida": {"test_system": "Candida", "assay": "Ex vivo human nail fragment model, treatment of Candida infection", "assay_type": "cell-based", "text": "Trichophyton rubrum strain NCPF0118 was obtained from the National Collection of Pathogenic Fungi, Bristol, UK. Clinical isolates of T. rubrum DM2006 1661, T. rubrum DM2006 1358, T. mentagrophytes DM2006 1503, T. mentagrophytes DM2006 1498 were isolated from patients suffering a range of tinea infections and were purchased from Professor Michel Monod (Service de Dermatologie, Université de Lausanne, Switzerland). Clinical isolates of Candida samples were also obtained from patients suffering from Candidal infection.\nThe procedure was carried out as described for Example 1 above with modifications to the vehicle, and fungal strains used. Each nail was inoculated with 10 μl of a spore suspension of Candida. Following inoculation the nails were treated with 10% (w/v) Novexatin® (NP213) in a vehicle solution of 50% (w/v) PEG 8000 plus 20% (w/v) urea; 10% (w/v) NP339 in a vehicle solution of 50% (w/v) PEG 8000 plus 20% (w/v) urea; 10% (w/v) NP339 in a vehicle solution of water; a control solution of 50% (w/v) PEG 8000 plus 20% (w/v) urea; a control solution of water; a solution of 16 μg/ml Itraconazole® and 1.6% (w/v) DMSO in a vehicle solution of water and a control solution of 1.6% (w/v) DMSO. As for Experiment 1 above, nail fragments were treated daily for up to 28 days. […]\nAt the end of the treatment period, the nail fragments were placed in sterile 2 ml microcentrifuge tubes containing 450 μl of a suspension broth consisting of Sabouraud's Liquid Medium, pH 5.6, containing approximately 100 mg of sterile zirconia beads (0.5 mm diameter). […] Colonies were counted on dishes that contained between 20 and 200 colonies in total, and the total number of cfu present in each sample was calculated. […] The counts were corrected for the surface area of the nails studied to give cfu/cm^2, transformed to log10 and means and standard errors of the mean were calculated using GraphPad Prism 4 (GraphPad, San Diego, Calif.). […] When very low numbers of colonies were detected, as in Experiment 3, the calculated cfu values are shown in order to indicate trends."}, "T. rubrum NCPF0118": {"test_system": "T. rubrum NCPF0118", "assay": "In vitro MIC100 testing", "assay_type": "cell-based, Trichophyton rubrum", "conditions": "Trichophyton rubrum; versus T. rubrum NCPF0118 in vitro; read-out: concentration equal to 100× the MIC100"}, "[1]": {"test_system": "Trichophyton rubrum strain NCPF0118", "assay": "Ex vivo human nail fragment model, treatment of established infection (cfu recovered)", "assay_type": "cell-based", "conditions": "Experiment 5; fluconazole at approximately 100×MIC100; 14 d and 28 d, daily", "protocol": "For antifungal efficacy studies with human toe nails, a solution of 50% (w/v) PEG 8000 (Sigma-Aldrich; Cat No P2139) was prepared by autoclaving and then diluting with sterile 50% (w/v) urea solution (Sigma-Aldrich; Cat No 51457). This solution was mixed thoroughly by vortexing and allowed to stabilise at 50° C. for up to 2 h. After stabilisation, the temperature was allowed to drop to below 40° C. and a concentrated, filter-sterilised solution of Novexatin® (NP213), dissolved in deionised water was added. Final concentrations of PEG 8000 of 50% (w/v), urea of 0-20% (w/v) and Novexatin® (NP213) of 0-10% (w/v) were used in the experiments described below.\nOn arrival, the cultures were transferred to a Petri dish containing sterile Sabouraud Dextrose agar (Sigma-Aldrich; Cat No 84088, or equivalent) and grown for up to 7 d at 30° C. The resulting growth was scraped off and re-suspended in Sabouraud's liquid medium (Oxoid; Cat No CM 147, or equivalent) containing […] dimethyl sulfoxide (DMSO) as cryoprotectant to create a culture stock. The fungus was stored in 0.5 ml aliquots in 2 ml screw-capped polypropylene vials (Cryovials) at −80° C. Seven days prior to experimental use, 50 μl of the culture stock was used to inoculate a slope of Potato Dextrose agar (Merck; Cat No VM556130 609, or equivalent), which was incubated at 30° C. for up to 7 d. The surface of the resulting growth was gently perturbed in 3 ml of sterile distilled/deionised water. After filtration through 2 layers of sterile surgical gauze to remove debris and larger clumps of biomass, the absorbance of the resultant spore suspension was measured at 530 nm, then adjusted to the 0.5 MacFarland standard (OD approx. 0.15)^2.\nHuman toe nails were obtained from a podiatrist in Aberdeen following a successful application to the Grampian Local Research Ethics Committee. […] Large toe nails were cut into 4 pieces, each approximately 1 cm^2 in area, using nail clippers. Nails of normal thickness (≦2 mm) were chosen. The 4 fragments cut from each single nail were placed in quadrants marked on Petri-dishes containing phosphate buffered saline rendered solid with 1.2% (w/v) Technical Agar No. 3 (Oxoid; Cat No LP0013, or equivalent), subsequently referred to as PBS agar. The nail fragments were of irregular shape, so to ensure that each nail received the appropriate amount of the treatment solutions, the surface area was measured by photographing the nails over graph paper and determining the number of 1mm^2 squares covered by each nail. The thickness of the nails was measured with a micrometer and nails distributed among treatment groups, to avoid nail thickness providing an additional experimental variable.\nTwenty four nail fragments from 6 whole large toenails were each inoculated with 10 μl of a spore suspension of T. rubrum NCPF0118 which was prepared as described above. The inoculum was applied to the ventral side of the nail (i.e. the side next to the skin in situ). The nails were incubated for 7 d at 30° C. to allow the fungus to infect the nail tissue. After this pre-incubation period, 12 of the fragments were assigned to each of 2 different treatment protocols, involving daily treatment with 2 different vehicle solutions, each containing a control and 3 different concentrations of Novexatin® (NP213). These vehicle solutions were: 50% (w/v) PEG 8000, and 50% (w/v) PEG 8000 plus 20% (w/v) urea. The concentrations of Novexatin® (NP213) studied were 0%, 1%, 5% and 10% (w/v). The solutions were applied at a volume of 10 μl/cm^2, corrected for the surface area of the different nail fragments as described above. The applied solution was spread over the dorsal side of the nail, to mimic the intended clinical treatment and the ventral side of the nail rested on the agar surface. Each time the nails were treated, they were transferred to a new sterile Petri dish containing PBS agar to minimise any build-up of fungal growth on the agar. Nail fragments were treated daily for 28 days. […]"}}, "note": "Non-standard residues stand in square brackets, D forms with d. No end group written: not given here."}
{"compound": "CN(C/C=C/C#CC(C)(C)C)Cc1cccc2ccccc12", "note": "[Terbinafine®, [(2E)-6,6-dimethylhept-2-en-4-yn-1-yl](methyl)(naphthalen-1-ylmethyl)amine, reference compound]", "values": [{"measurement": "outcome of treatment", "setting": "Candida; Experiment 7, 10 μg/ml, 14 d and 28 d", "value": "unsuccessful"}]}
{"compound": "OC(Cn1cncn1)(Cn1cncn1)c1ccc(F)cc1F", "note": "[fluconazole, 2-(2,4-difluorophenyl)-1,3-bis(1H-1,2,4-triazol-1-yl)propan-2-ol, reference compound]", "values": [{"measurement": "MIC", "setting": "T. rubrum NCPF0118", "value": 360, "unit": "µg/mL"}, {"measurement": "outcome of treatment", "setting": "[1]", "value": "unsuccessful"}]}
{"compound": "dRdRdRdRdRdRdRdRdRdRdRdRdR ([dR][dR][dR][dR][dR][dR][dR][dR][dR][dR][dR][dR][dR]) [NP339]", "values": [{"measurement": "recoverable fungal growth after treatment", "setting": "Candida; Experiments 6 and 7, 10% (w/v), 14 d or 28 d, daily", "value": "no recoverable fungal growth"}]}
